Results as given in patent US9504728B2, “Dosage form” (priority 2011, dated 2016).
Read-outs that look alike come from different tables or passages of the source.

How the values were obtained:
in vivo = conditions: CD1 mice; for AUC(0-t) / bioavailability: male, mouse; for bioavailability: read-out: Oral bioavailability F %
Description: For sanglifehrins, whole blood is analysed. Compounds are formulated in 5% ethanol/5% cremophor EL/90% saline for both p.o. and i.v. administration. Groups of 3 male CD1 mice are dosed with either 1 mg/kg i.v. or 5 or 10 mg/kg p.o. Blood samples (40 μL) are taken via saphenous vein, pre-dose and at 0.25, 0.5, 2, 8, and 24 hours, and diluted with an equal amount of dH20 and put on dry ice immediately. Samples are stored at −70° C. until analysis. The concentration of the sanglifehrin or parent compound in the sample is determined via LCMS as follows: 20 μL of blood:H2O (1:1, v/v)/PK sample is added with 20 μL Internal standard (hydroxyl macrocycle, 6) at 100 ng/mL, 20 μL working solution/MeOH and 150 μL of ACN, vortexed for 1 minute at 1500 rpm, and centrifuged at 12000 rpm for 5 min. The supernatant is then injected into LC-MS/MS. The time-course of blood concentrations is plotted and used to derive area under the whole blood concentration-time curve (AUC—which is directly proportional to the total amount of unchanged drug that reaches the systemic circulation). These values are used to generate PK parameters where possible.
To assess the pharmacokinetics of the compounds in an in vivo setting, compounds were dosed po at 10 or 5 mg/kg and iv at 1 mg/kg to groups of CD1 mice.
Pharmacokinetic analysis was carried out as described in the general methods.

physchem = conditions: for PBS % remaining after 1 hour: phosphate buffered saline pH 7.3, 37° C.; for SGF % remaining after 1 hour: simulated gastric fluid pH 1.2, 37° C.
Description: 1 mM DMSO solutions were made of compounds to be tested and mixed on vibrax to ensure compound was fully dissolved.
PBS Solution: 2 tablets of Phosphate Buffered Saline (Dulbecco A) tablets (Oxoid, BR0014G) were added to 200 mL distilled water and stirred to mix. pH was measured at 7.28.
Simulated Gut Fluid (SGF): 300 uL conc. HCl added to 50 mL distilled water and mixed. pH was measured at 1.21.
Simulated gut fluid+pepsin: 300 uL conc. HCl and 1 g of Pepsin (from Porcine gastric mucosa, Sigma) were added to 50 mL distilled water and mixed by stirring for 1 hr.
SGF+denatured pepsin: 900 uL of Acidic Enzyme Solution taken into a 2 mL eppendorf tube and heated at 99° C. in a water bath for 30 mins.
Acidic Enzyme and Acidic Denatured Enzyme solutions were made fresh each day, whereas PBS and Acid Solutions were stored at 4° C. when not in use.
Eppendorfs containing 900 uL of test solutions were pre-warmed in a 37° C. water bath. At t=0, 100 uL of test compound (1 mM DMSO solution) was added to test solution and mixed. 100 uL was taken immediately and mixed into 900 uL acetonitrile in an amber glass LC vial. 50-100 uL of the sample was analysed by HPLC, integrating the compounds' UV peaks to determine degradation over time. Sanglifehrin A was measured at its λmax of 240 nm; 33, 45 and 24 were measured at their λmax of 276 nm.
Further samples were taken in the same manner for analysis at approximately t=0.33, 0.67, 1.0, 2.67, and 4.67 hr. A final analysis was run at t=>30 to confirm end point of reaction.
Controls of test compound DMSO solutions in 900 uL DMSO were also prepared and treated in the same manner, with samples analysed at t=0, t=8 and t=>30 hr. Half lives were calculated from the data generated.
Stability of compounds was analysed in simulated gastric fluid, pH1.2 (SGF) and phosphate buffered saline, pH7.3 (PBS).

cyclophilin A (CypA) = cyclophilin A (CypA) (Homo sapiens, UniProt P62937); conditions: cited from earlier work
calcineurin = conditions: in words; Zenke et al. 2001; cited from earlier work
[1] = iv, whole blood, 1 mg/kg i.v., read-out: AUClast after 1 mg/kg i.v. dose
[2] = whole blood, po, p.o. 10 or 5 mg/kg vs i.v. 1 mg/kg
[3] = po, whole blood, 10 mg/kg p.o., read-out: AUClast after 10 mg/kg p.o. dose
[4] = in vivo, iv, whole blood, 1 mg/kg i.v., read-out: AUClast after 1 mg/kg i.v. dose
[5] = in vivo, po, p.o. 10 or 5 mg/kg vs i.v. 1 mg/kg
[6] = in vivo, po, whole blood, 10 mg/kg p.o., read-out: AUClast after 10 mg/kg p.o. dose

Chain of cyclophilin A (CypA) (P62937 whole entry): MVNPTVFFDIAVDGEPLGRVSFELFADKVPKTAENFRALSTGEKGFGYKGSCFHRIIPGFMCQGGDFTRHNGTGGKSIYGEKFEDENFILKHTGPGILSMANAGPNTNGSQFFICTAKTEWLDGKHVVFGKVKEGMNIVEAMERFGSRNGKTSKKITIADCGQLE

SMILES | AUC(0-t) (in vivo; [1]) [ng·h/mL] | bioavailability (in vivo; [2]) [%] | AUC(0-t) (in vivo; [3]) [ng·h/mL] | further results
CON(C)C(=O)/C=C/C=C(\C)[C@@H]1C/C=C/C=C/C=C(\C)[C@@H](O)[C@@H](CCC(C)=O)C(=O)N[C@@H](C(C)C)C(=O)N[C@@H](Cc2cc(O)cc(F)c2)C(=O)N2CCCC(N2)C(=O)O1 (some centres unmarked) [Compound 26] | 5500 | 1.5 |  | AUC(0-t) (in vivo; po, whole blood, 5 mg/kg p.o., read-out: AUClast after 5 mg/kg p.o. dose): 421 ng·h/mL
CON(C)C(=O)/C=C/C=C(\C)[C@@H]1C/C=C/C=C/[C@H](O)[C@H](C)[C@@H](O)[C@@H](CCC(C)=O)C(=O)N[C@@H](C(C)C)C(=O)N[C@@H](Cc2cccc(O)c2)C(=O)N2CCCC(N2)C(=O)O1 (some centres unmarked) [Compound 33] | 14300 | 1.6 | 2200 | half-life at 100 µM (physchem; buffer, pH 7.3): > 1440 min; SGF + Pepsin, % remaining after 1 hour (physchem; pig, simulated gi fluid, 1 h, 100 µM): 25%; half-life at 100 µM (physchem; simulated gi fluid, pH 1.2): 39.6 min
CCN(CC)C(=O)/C=C/C=C(\C)[C@@H]1C/C=C/C=C/[C@H](O)[C@H](C)[C@@H](O)[C@@H](CCC(C)=O)C(=O)N[C@@H](C(C)C)C(=O)N[C@@H](Cc2cccc(O)c2)C(=O)N2CCCC(N2)C(=O)O1 (some centres unmarked) [Compound 34] | 14000 | 0.1 | 800 | 
CC(=O)CC[C@H]1C(=O)N[C@@H](C(C)C)C(=O)N[C@@H](Cc2cc(O)cc(F)c2)C(=O)N2CCCC(N2)C(=O)O[C@H](/C(C)=C/C=C/C(=O)N2CCCCO2)C/C=C/C=C/[C@H](O)[C@H](C)[C@H]1O (some centres unmarked) [Compound 24] | 45500 | 3.6 |  | SGF + denatured pepsin, % remaining after 1 hour (physchem; 37° C., 1 hour): 30%; SGF + Pepsin, % remaining after 1 hour (physchem; SGF + pepsin, 37° C., 1 hour): 23%; half-life at 100 µM (physchem; phosphate buffered saline (PBS), pH 7.3): > 1440 min; PBS % remaining after 1 hour (physchem; 1 hour): 100%; half-life at 100 µM (physchem; simulated gastric fluid (SGF), pH 1.2): < 19.8 min; SGF % remaining after 1 hour (physchem; 1 hour): 18%
CC(=O)CC[C@H]1C(=O)N[C@@H](C(C)C)C(=O)N[C@@H](Cc2cccc(O)c2)C(=O)N2CCCC(N2)C(=O)O[C@H](/C(C)=C/C=C/C(=O)Nc2ccccn2)C/C=C/C=C/[C@H](O)[C@H](C)[C@H]1O (some centres unmarked) [Compound 42] |  |  |  | AUC(0-t) (in vivo; [4]): 11700 ng·h/mL; bioavailability (in vivo; [5]): 0.7%; AUC(0-t) (in vivo; [6]): 919 ng·h/mL
CC(=O)CC[C@H]1C(=O)N[C@@H](C(C)C)C(=O)N[C@@H](Cc2cccc(O)c2)C(=O)N2CCC[C@H](N2)C(=O)O[C@H](/C(C)=C/CO)C/C=C/C=C/[C@H](O)[C@H](C)[C@H]1O [hydroxymacrocycle, 6, hydroxymacrocycle] |  |  |  | affinity for CyPA (cyclophilin A (CypA); in words, Sedrani et al., 2003): strong affinity
C/C(=C\CO)[C@@H]1C/C=C/C=C/[C@@H]2OC3(C)CC[C@@H](C(=O)N[C@@H](C(C)C)C(=O)N[C@@H](Cc4cccc(O)c4)C(=O)N4CCCC(N4)C(=O)O1)[C@H](O3)[C@H]2C [Compound 35] | 813 | 0.1 | 11.3 | 
CON(C)C(=O)/C=C/C=C(\C)[C@@H]1C/C=C/C=C/[C@H](O)[C@H](C)[C@@H](O)[C@@H](CCC(C)=O)C(=O)N[C@@H](C(C)C)C(=O)N[C@@H](Cc2cc(O)cc(F)c2)C(=O)N2CCCC(N2)C(=O)O1 (some centres unmarked) [Compound 23] | 22900 | 2.4 |  | 
CC[C@H]1C[C@H](C)[C@@]2(NC1=O)O[C@@H](C[C@H](O)[C@@H](C)CC/C=C/C=C(\C)[C@@H]1C/C=C/C=C/[C@H](O)[C@H](C)[C@@H](O)[C@@H](CCC(C)=O)C(=O)N[C@@H](C(C)C)C(=O)N[C@@H](Cc3cccc(O)c3)C(=O)N3CCC[C@H](N3)C(=O)O1)[C@H](C)[C@H](O)[C@@H]2C [Sanglifehrin A, 5, Sanglifehrin A, reference compound] |  |  |  | affinity for CyPA compared to Cyclosporine A (fold higher) (cyclophilin A (CypA); relative to CsA): approximately 20 fold; Oral bioavailability F % (in vivo; p.o. 10 or 5 mg/kg vs i.v. 1 mg/kg): 1.4%; SGF + denatured pepsin, % remaining after 1 hour (physchem; 37° C., 1 hour): 49%; SGF + Pepsin, % remaining after 1 hour (physchem; SGF + pepsin, 37° C., 1 hour): 41%; PBS % remaining after 1 hour (physchem; 1 hour): 76%; SGF % remaining after 1 hour (physchem; 1 hour): 52%; inhibition of the phosphatase activity of calcineurin (calcineurin): does not inhibit
CC(=O)CC[C@H]1C(=O)N[C@@H](C(C)C)C(=O)N[C@@H](Cc2cccc(O)c2)C(=O)N2CCCC(N2)C(=O)O[C@H](/C(C)=C/C=C/C(=O)N2CCCCO2)C/C=C/C=C/[C@H](O)[C@H](C)[C@H]1O (some centres unmarked) [Compound 45] |  |  |  | AUC(0-t) (in vivo; [4]): 15100 ng·h/mL; bioavailability (in vivo; [5]): 3.2%; AUC(0-t) (in vivo; [6]): 4840 ng·h/mL; SGF + denatured pepsin, % remaining after 1 hour (physchem; 37° C., 1 hour): 15%; SGF + Pepsin, % remaining after 1 hour (physchem; SGF + pepsin, 37° C., 1 hour): 17%; half-life at 100 µM (physchem; buffer, pH 7.3): > 1440 min; PBS % remaining after 1 hour (physchem; 1 hour): 100%; SGF % remaining after 1 hour (physchem; 1 hour): 13%; half-life at 100 µM (physchem; simulated gi fluid, pH 1.2): < 19.8 min

Now from value to compound, other results behind:

AUC(0-t) (in vivo; [1]) [ng·h/mL] | bioavailability (in vivo; [2]) [%] | AUC(0-t) (in vivo; [3]) [ng·h/mL] | SMILES | further results
1220 | 0.04 | 4.76 | CNC(=O)/C=C/C=C(\C)[C@@H]1C/C=C/C=C/[C@H](O)[C@H](C)[C@@H](O)[C@@H](CCC(C)=O)C(=O)N[C@@H](C(C)C)C(=O)N[C@@H](Cc2cccc(OC)c2)C(=O)N2CCCC(N2)C(=O)O1 (some centres unmarked) [Compound 37] | 
4920 | 0.04 | 17.8 | CNC(=O)/C=C/C=C(\C)[C@@H]1C/C=C/C=C/[C@H](O)[C@H](C)[C@@H](O)[C@@H](CCC(C)=O)C(=O)N[C@@H](C(C)C)C(=O)N[C@@H](Cc2cccc(O)c2)C(=O)N2CCCC(N2)C(=O)O1 (some centres unmarked) [Compound 36] | 
4910 | 7.8 | 3880 | CC(=O)CC[C@H]1C(=O)N[C@@H](C(C)C)C(=O)N[C@@H](Cc2cccc(O)c2)C(=O)N2CCCC(N2)C(=O)O[C@H](/C(C)=C/C=C/C(=O)OC(C)(C)C)C/C=C/C=C/[C@H](O)[C@H](C)[C@H]1O (some centres unmarked) [Compound 40] | 
2500 | 0 |  | CC(=O)CC[C@H]1C(=O)N[C@@H](C(C)C)C(=O)N[C@@H](Cc2cccc(O)c2)C(=O)N2CCCC(N2)C(=O)O[C@H](/C(C)=C/C=C/C(=O)Nc2ccc(-c3ccccc3)cc2)C/C=C/C=C/[C@H](O)[C@H](C)[C@H]1O (some centres unmarked) [Compound 44] | 
9800 | 9.2 | 8980 | CC(=O)CC[C@H]1C(=O)N[C@@H](C(C)C)C(=O)N[C@@H](Cc2cccc(O)c2)C(=O)N2CCCC(N2)C(=O)O[C@H](/C(C)=C/C=C/C(=O)N2CCOCC2)C/C=C/C=C/[C@H](O)[C@H](C)[C@H]1O (some centres unmarked) [Compound 43] | 
5790 | 5.5 | 3090 | CCOC(=O)/C=C/C=C(\C)[C@@H]1C/C=C/C=C/[C@H](O)[C@H](C)[C@@H](O)[C@@H](CCC(C)=O)C(=O)N[C@@H](C(C)C)C(=O)N[C@@H](Cc2cccc(O)c2)C(=O)N2CCCC(N2)C(=O)O1 (some centres unmarked) [Compound 38] | 
1660 | 0.9 | 111 | CCCC(=O)/C=C/C=C(\C)[C@@H]1C/C=C/C=C/[C@H](O)[C@H](C)[C@@H](O)[C@@H](CCC(C)=O)C(=O)N[C@@H](C(C)C)C(=O)N[C@@H](Cc2cccc(O)c2)C(=O)N2CCCC(N2)C(=O)O1 (some centres unmarked) [Compound 39] | 
1940 | 2.4 | 453 | CC(=O)CC[C@H]1C(=O)N[C@@H](C(C)C)C(=O)N[C@@H](Cc2cccc(O)c2)C(=O)N2CCCC(N2)C(=O)O[C@H](/C(C)=C/C=C/C(=O)N(CC(C)C)CC(C)C)C/C=C/C=C/[C@H](O)[C@H](C)[C@H]1O (some centres unmarked) [Compound 41] | 
